Series [1] is described as follows: HPLC retention time as measure of surface hydrophobicity. Type of series: physicochemical. The conditions noted are these: C18 column, linear gradient 30 to 45% acetonitrile, 220 nm; compared with NCR169 oxidized forms. As to the method: Figure 1 Sample preparation of NCR169 peptides. (A) High-performance liquid chromatography (HPLC) analyses of NCR169 peptides. Purified NCR169-ox1, NCR-ox2, NCR169-red, and reoxidized NCR169-red (NCR-red + GSSG) were analyzed by HPLC with a linear gradient of 30 to 45% acetonitrile and monitored at 220 nm. (B) MALDI-TOF–MS spectra of HPLC-purified NCR169-ox1 (upper), NCR169-ox2 (middle), and NCR169-red (lower). (C) Amino acid sequences of NCR169 peptides used in this study. The cysteine numbers (C1 to C4) are indicated in red on the sequence. The experimentally determined disulfide linkage patterns are indicated by connecting lines on the sequences. The first N-terminal residue, G (underlined), is the extra residue remaining after tag cleavage.
(§1) To confirm it, we examined the solubility of NCR169 in various solvents, HEPES (salt-free), HEPES with salt (50 to 200 mM NaCl or KCl), and PBS. […] In other words, the disulfide bonds of NCR169 contribute to its solubility.
To prepare the reduced peptide (NCR169-red), NCR169-ox was reduced with 10 mM tris(2-carboxyethyl)phosphine (TCEP) at pH 10.5, followed by acidification using trifluoroacetate (TFA) and HPLC purification with a C18 column and 30–45% ACN gradient. The fractions were collected and dried under vacuum conditions. The purified peptides were confirmed using MALDI-TOF–MS.

The format of series [2] is physicochemical. The following applies: 20 mM HEPES pH 7.0 salt-free, or with 50 to 200 mM NaCl or KCl, and PBS pH 7.4; 1 h room temperature, centrifuged 20,000 × g, supernatant by Tricine-SDS-PAGE. As to the method: as §1
Supplementary Figure S3. Solubility assessment of NCR169. The same amount of NCR169 was dissolved in various solvents. After incubation at room temperature for 1 h, the solution was centrifuged at 20,000 × g and the supernatant was analyzed by Tricine-SDS-PAGE. […]

Where a SMILES comes first, the peptide text is derived from it.

Turning to `CC[C@H](C)[C@H](NC(=O)CNC(=O)[C@H](CS)NC(=O)[C@H](Cc1ccc(O)cc1)NC(=O)[C@H](CCCCN)NC(=O)[C@@H](NC(=O)[C@H](Cc1c[nH]cn1)NC(=O)CNC(=O)[C@@H](NC(=O)[C@H](CC(=O)O)NC(=O)[C@H](CCC(=O)O)NC(=O)CN)[C@@H](C)CC)[C@@H](C)CC)C(=O)N[C@H](C(=O)N[C@@H](CC(=O)O)C(=O)N[C@@H](CC(=O)O)C(=O)N[C@@H](CS)C(=O)N[C@@H](Cc1ccc(O)cc1)C(=O)N[C@@H](CCCCN)C(=O)N[C@@H](CO)C(=O)N[C@@H](CCCCN)C(=O)N[C@@H](CCCCN)C(=O)N1CCC[C@H]1C(=O)N[C@@H](CC(C)C)C(=O)N[C@@H](Cc1ccccc1)C(=O)N[C@@H](CCCCN)C(=O)N[C@H](C(=O)N[C@@H](Cc1c[nH]c2ccccc12)C(=O)N[C@@H](CCCCN)C(=O)N[C@@H](CS)C(=O)N[C@H](C(=O)N[C@@H](CCC(=O)O)C(=O)N[C@@H](CC(N)=O)C(=O)N[C@H](C(=O)N[C@@H](CS)C(=O)N[C@H](C(=O)N[C@@H](CC(C)C)C(=O)N[C@@H](Cc1c[nH]c2ccccc12)C(=O)N[C@@H](Cc1ccc(O)cc1)C(=O)N[C@@H](CCCCN)C(=O)O)C(C)C)C(C)C)C(C)C)[C@@H](C)CC)C(C)C` [NCR169-red] (H-GEDIGHIKYCGIVDDCYKSKKPLFKIWKCVENVCVLWYK-OH), in series [1], the “HPLC retention time (hydrophobicity of molecular surface)” value is reported as “longer than that of the NCR169 oxidized forms”. Moreover, the “Solubility in various solvents” value in series [2] is “insoluble in all conditions except the salt-free buffer”.

Values taken from article PMC8110993, “Structure and antimicrobial activity of NCR169, a nodule-specific cysteine-rich peptide of Medicago truncatula” (Scientific Reports, 2021).
